As usually defined, the IC50 is the concentration that gives 50% inhibition.

Here are results for 26 compounds from ChEMBL document CHEMBL3745696, “Synthesis and cytotoxic activity of novel hexahydropyrrolo[2,3-b]indole imidazolium salts” (Bioorg Med Chem Lett, 2016).

Common to all, as to type: functional, cell-based
Assay [1] is described as follows: Cytotoxicity against human HL60 cells by MTT assay. To be noted: HL-60.
Assay [2] in a line: Cytotoxicity against human SMMC7721 cells by MTT assay. Conditions: SMMC-7721.
Assay [3] has as its system A549. The experiment in a line: Cytotoxicity against human A549 cells by MTT assay.
The test system of assay [4] is MCF7. Briefly: Cytotoxicity against human MCF7 cells by MTT assay. Background: Tetrazolium dyes change colour on reduction, which living cells bring about.
Assay [5] relates to SW480. Briefly: Cytotoxicity against human SW480 cells by MTT assay.

Regarding `Cc1n(CC(=O)N2CCC3(C)c4ccccc4N(C)C23)c2ccccc2[n+]1CC(=O)c1ccc2ccccc2c1` (stereo not given), the IC50 in assay [1] stood at 5.95 µM; in assay [2], 7.09 µM; in assay [3], 7.64 µM; in assay [4], 9.45 µM; in assay [5] it was 10.1 µM.

In the case of `Cc1cc2ncn(CC(=O)N3CCC4(C)c5ccccc5N(C)C34)c2cc1C` (stereo not given), the half-inhibitory concentration (IC50) in assay [1], in assay [2], in assay [3], in assay [4] and in assay [5] was more than 20 µM each time.

Take `COc1ccc(C(=O)C[n+]2c(C)n(CC(=O)N3CCC4(C)c5ccccc5N(C)C34)c3ccccc32)cc1` (stereo not given): the IC50 in assay [1], in assay [2], in assay [3], in assay [4] and in assay [5] was more than 20 µM each time.

Regarding `CN1c2ccccc2C2(C)CCN(C(=O)Cn3cnc4ccccc43)C12` (stereo not given), the IC50 in assay [1], in assay [2], in assay [3], in assay [4] and in assay [5] was more than 20 µM in each case.

Consider `Cc1ccc(C[n+]2ccn(CC(=O)N3CCC4(C)c5ccccc5N(Cc5ccccc5)C34)c2C)cc1` (stereo not given), for which the IC50 was 0.47 µM in assay [1]; 19.5 µM in assay [2]; more than 20 µM in assay [3]; 7.26 µM in assay [4]; 9.71 µM in assay [5].

Turning to `CC12CCN(C(=O)Cn3c[n+](CC(=O)c4ccccc4)c4ccccc43)C1N(Cc1ccccc1)c1ccccc12` (stereo not given), the IC50 in assay [1] is 5.72 µM; in assay [2] it was 14.5 µM; in assay [3], more than 20 µM; in assay [4], 8.16 µM; in assay [5] it was 8.43 µM.

Regarding `Cc1n(CC(=O)N2CCC3(C)c4ccccc4N(C)C23)c2ccccc2[n+]1Cc1ccc2ccccc2c1` (stereo not given), the IC50 in assay [1] came to 1.49 µM; in assay [2], 4.34 µM; in assay [3], 16.7 µM; in assay [4], 5.09 µM; in assay [5], 7.36 µM.

As to `COc1ccc(C(=O)C[n+]2ccn(CC(=O)N3CCC4(C)c5ccccc5N(Cc5ccccc5)C34)c2C)cc1` (stereo not given), the half-inhibitory concentration (IC50) was 1.3 µM in assay [1]; more than 20 µM in assay [2]; more than 20 µM in assay [3]; 10.6 µM in assay [4]; more than 20 µM in assay [5].

On to `CC12CCN(C(=O)Cn3c[n+](CC(=O)c4ccc(Br)cc4)c4ccccc43)C1N(Cc1ccccc1)c1ccccc12` (stereo not given), for which the half-inhibitory concentration (IC50) in assay [1] is 2.93 µM; in assay [2] it was 8.43 µM; in assay [3], 8.07 µM; in assay [4], 8.15 µM; in assay [5], 9.18 µM.

For the compound `Cc1n(CC(=O)N2CCC3(C)c4ccccc4N(Cc4ccccc4)C23)cc[n+]1CC(=O)c1ccc2ccccc2c1` (stereo not given), the IC50 in assay [1] was 2.2 µM; in assay [2], 4.79 µM; in assay [3] it was 11.2 µM; in assay [4], 5.67 µM; in assay [5] it was 7.78 µM.

Take `Cc1n(CC(=O)N2CCC3(C)c4ccccc4N(C)C23)c2ccccc2[n+]1Cc1ccccc1Br` (stereo not given): the IC50 in assay [1] is 3.72 µM; in assay [2], 10.8 µM; in assay [3] it was more than 20 µM; in assay [4], 8.95 µM; in assay [5], more than 20 µM.

With `COc1ccc(C(=O)C[n+]2cn(CC(=O)N3CCC4(C)c5ccccc5N(Cc5ccccc5)C34)c3ccccc32)cc1` (stereo not given), the concentration for half-maximal inhibition (IC50) was 5.94 µM in assay [1]; 10 µM in assay [2]; more than 20 µM in assay [3]; 7.83 µM in assay [4]; 8.35 µM in assay [5].

On to `Cc1n(CC(=O)N2CCC3(C)c4ccccc4N(Cc4ccccc4)C23)cc[n+]1CC(=O)c1ccc(Br)cc1` (stereo not given), for which the concentration for half-maximal inhibition (IC50) is 7.75 µM in assay [1]; more than 20 µM in assay [2]; more than 20 µM in assay [3]; more than 20 µM in assay [4]; more than 20 µM in assay [5].

As for `CC12CCN(C(=O)Cn3c[n+](CC(=O)c4ccc5ccccc5c4)c4ccccc43)C1N(Cc1ccccc1)c1ccccc12` (stereo not given), the IC50 in assay [1] was 1.64 µM; in assay [2], 7.62 µM; in assay [3], 7.4 µM; in assay [4], 5.13 µM; in assay [5] it was 6.88 µM.

`CC12CCN(C(=O)Cn3cnc4ccccc43)C1N(Cc1ccccc1)c1ccccc12` (stereo not given): the IC50 in assay [1], in assay [2], in assay [3], in assay [4] and in assay [5] was more than 20 µM in each case.

Consider `Cc1cc2ncn(CC(=O)N3CCC4(C)c5ccccc5N(Cc5ccccc5)C34)c2cc1C` (stereo not given), for which the concentration for half-maximal inhibition (IC50) in assay [1], in assay [2], in assay [3], in assay [4] and in assay [5] was more than 20 µM throughout.

Turning to `CC12CCNC1N(Cc1ccccc1)c1ccccc12` (stereo not given), the 50% inhibitory concentration (IC50) in assay [1], in assay [2], in assay [3], in assay [4] and in assay [5] was more than 20 µM throughout.

With `Cc1ccc(C[n+]2c(C)n(CC(=O)N3CCC4(C)c5ccccc5N(C)C34)c3ccccc32)cc1` (stereo not given), the half-inhibitory concentration (IC50) in assay [1] is 2.25 µM; in assay [2], 8.03 µM; in assay [3], more than 20 µM; in assay [4], 10.8 µM; in assay [5], more than 20 µM.

As to `Cc1n(CC(=O)N2CCC3(C)c4ccccc4N(C)C23)c2ccccc2[n+]1CC(=O)c1ccc(Br)cc1` (stereo not given), the 50% inhibitory concentration (IC50) in assay [1], in assay [2], in assay [3], in assay [4] and in assay [5] was more than 20 µM in each case.

Regarding `Cc1n(CC(=O)N2CCC3(C)c4ccccc4N(Cc4ccccc4)C23)cc[n+]1CC(=O)c1ccccc1` (stereo not given), the concentration for half-maximal inhibition (IC50) in assay [1], in assay [2], in assay [3], in assay [4] and in assay [5] was more than 20 µM in each case.

On to `Cc1nc2ccccc2n1CC(=O)N1CCC2(C)c3ccccc3N(C)C12` (stereo not given), for which the IC50 in assay [1], in assay [2], in assay [3], in assay [4] and in assay [5] was more than 20 µM each time.

`Cc1nc2ccccc2n1CC(=O)N1CCC2(C)c3ccccc3N(Cc3ccccc3)C12` (stereo not given): the 50% inhibitory concentration (IC50) in assay [1], in assay [2], in assay [3], in assay [4] and in assay [5] was more than 20 µM throughout.

In the case of `CN1c2ccccc2C2(C)CCNC12` (stereo not given), the half-inhibitory concentration (IC50) in assay [1], in assay [2], in assay [3], in assay [4] and in assay [5] was more than 20 µM in each case.

Regarding `CN1c2ccccc2C2(C)CCN(C(=O)Cn3ccnc3)C12` (stereo not given), the half-maximal inhibitory concentration (IC50) in assay [1], in assay [2], in assay [3], in assay [4] and in assay [5] was more than 20 µM throughout.

In the case of `Cc1nccn1CC(=O)N1CCC2(C)c3ccccc3N(C)C12` (stereo not given), the concentration for half-maximal inhibition (IC50) in assay [1], in assay [2], in assay [3], in assay [4] and in assay [5] was more than 20 µM in each case.

On to `Cc1nccn1CC(=O)N1CCC2(C)c3ccccc3N(Cc3ccccc3)C12` (stereo not given), for which the 50% inhibitory concentration (IC50) in assay [1], in assay [2], in assay [3], in assay [4] and in assay [5] was more than 20 µM each time.
